Source: patent US20160228434A1, “TREATMENT OF DISEASES CAUSED BY ABNORMAL LYMPHOCYTE FUNCTION WITH AN HDAC6 INHIBITOR” (priority 2013, published 2016)

Tested on: bone marrow pro-B cell (B220+CD43+) and pre-B cell (B220+CD43-) populations
Experiment: Bone marrow pro- and pre-B cell differentiation by flow cytometry in treated NZB/W mice
Assay type: in vivo
Source text: Bone marrow cells were flushed in PBS with 1% BSA from the femurs of NZB/W mice following euthanization. Red blood cells (RBCs) were lysed using ammonium chloride potassium (ACK) lysing solution. Single-cell suspensions were then washed and stained with Allo-Phycocyanin (APC)-conjugated […] and Flourescein Isothiocyanate (FITC)-conjugated CD43 anti-mouse mAbs to identify pro-B cell (B220^+ CD43^+) and pre-B cell (B220^+ CD43^−) populations. Pro-B cell populations were further stained with Phycoerythirn (PE)-conjugated BP1 and PECy5 or Peridinin-chlorophyll proteins (PerCP)-conjugated CD24 anti-mouse mAbs to identify fractions A (B220^+ CD43^+ CD24^− BP1^−), B (B220^+ CD43^+ CD24^+ BP1^−), C (B220^+ CD43^+ CD24^lo BP1), and C′ (B220^+ CD43^+ CD24^hi BP1^+). Pre-B cells fractions were further stained with PE-conjugated IgD, and PECy5-conjugated IgM anti-mouse mAbs to identify fractions D (B220^+ CD43^− IgM^− IgD^−), E (B220^+ CD43^− IgM^+ IgD^−) and F (B220^+ CD43^− IgM^+ IgD^+). Fractions were measured by flow cytometric analysis. All antibodies were purchased from eBioscience (San Diego, Calif., USA). Flow cytometry was performed at that College of Veterinary Medicine Flow Cytometry Core Facility using a FACScan flow cytometer (Becton Dickinson, Franklin Lakes, N.J., USA). Flow cytometry data was analyzed using FlowJo Software (Tree Star, Ashland, Oreg., USA).
NZB/W mice were injected intraperitoneally 5 days/week with the vehicle control (DMSO), ACY-738 treatment at 5 mg/kg (low-dose), or ACY-738 treatment at 20 mg/kg (high-dose) beginning at 22-weeks-of-age until euthanization at 38 weeks-of-age. ACY-738 was received from Acetylon Pharmaceuticals for use in all studies. Proteinuria and weight were measured every 2 weeks and blood was collected every four weeks for sera analysis. Proteinuria was measured by a standard semi-quantitative test using Siemens Uristix dipsticks (Siemens Healthcare, Deerfield, Ill., USA). Results were quantified according to the manufacturer's instructions and scored as follows: dipstick reading of 0 mg/dL=0, trace=1, 30-100 mg/dL=2, 100-300 mg/dL=3, 300-2000 mg/dL=4, and 2000+ mg/dL=5.
Following treatment with ACY-738, harvested bone marrow cells were stained with B220 and CD43 and the percentage of pro- and pre-B cells was determined using flow cytometric analysis. FIG. 2A depicts a representative flow cytometry image of pro-B cell (B220^+ CD43^+) and pre-B cell (B220^+ CD43^−) populations.

[1] = both high (20 mg/kg) and low (5 mg/kg) dose
[2] = i.p. 5 days/week, 22 to 38 weeks-of-age, 5 or 20 mg/kg

O=C(NO)c1cnc(NC2(c3ccccc3)CC2)nc1 [ACY-738]
percentage of pre-B cells in fraction D [1]: significant increase
percentage of pre-B cells in fraction E [1]: significant increase
pre-B cells in fraction F [1]: decrease
pre-B cell population (B220+CD43-) in bone marrow (i.p. 5 days/week, 22 to 38 weeks-of-age, 5 and 20 mg/kg): significantly decreased in a dose-dependent manner
percentage of pro-B cells in fraction A [2]: significantly increased
percentage of pro-B cells in fraction C [2]: significantly increased
percentage of pro-B cells (B220+CD43+) in bone marrow (i.p. 5 days/week, 22 to 38 weeks-of-age, 5 or 20 mg/kg, vs vehicle): not significantly altered
